Measured values reported in patent publication US9474790B2, “Stable, protracted GLP-1/glucagon receptor co-agonists for medical use” (Novo Nordisk A/S, priority 2013, dated 2016).
Numbered stars: 1 amine (or outer) side, 2 acyl side, 3 side chain; on linkers, the order of the positions; unused ones are H or OH. Square brackets hold non-standard residues; d marks the D form. Side chains are listed from the residue outwards. Peptide text beside a SMILES is read from it. * marks the point of attachment. C18 diacid = O=C(O)CCCCCCCCCCCCCCCCC(=O)*; γGlu = O=C(O)[C@H](CCC(=O)[*:2])N[*:1]; Ac4c = NC1(C(=O)O)CCC1; AEEA = NCCOCCOCC(=O)O; Aib = CC(C)(N)C(=O)O

The molecules below were run against T1, human GLP-1 receptor (Homo sapiens, UniProt P43220) (assay: GLP-1 receptor binding, 125I-GLP-1 displacement SPA on isolated membranes). Details: displacement of 125I-GLP-1 from membranes; read-out: IC50 GLP-1R.
T1 construct: expressed in transfected cells; host or cells: BHK cells (parent BHKTS13), clone FCW467-12A/KZ10-1, with CRE luciferase
T1 sequence (P43220 24-463): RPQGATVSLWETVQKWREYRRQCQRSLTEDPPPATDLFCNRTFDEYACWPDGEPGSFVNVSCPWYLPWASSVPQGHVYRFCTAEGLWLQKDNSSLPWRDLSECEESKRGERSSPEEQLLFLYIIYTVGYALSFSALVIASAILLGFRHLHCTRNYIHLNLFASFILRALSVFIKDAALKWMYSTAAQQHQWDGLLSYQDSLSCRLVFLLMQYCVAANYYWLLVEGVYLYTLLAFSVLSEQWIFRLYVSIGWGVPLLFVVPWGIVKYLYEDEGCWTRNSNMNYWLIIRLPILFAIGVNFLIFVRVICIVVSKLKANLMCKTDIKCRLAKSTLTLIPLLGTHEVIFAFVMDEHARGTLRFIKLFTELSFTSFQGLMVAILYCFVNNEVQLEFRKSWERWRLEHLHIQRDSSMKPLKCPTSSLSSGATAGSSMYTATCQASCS
Summary of the method: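 SPA displacement of 125I-GLP-1(7-36)NH2 from membranes of BHK cells expressing human GLP-1 receptor, with WGA beads, in 50 mM HEPES, 5 mM EGTA, 5 mM MgCl2, 0.005% Tween 20, pH 7.4. Incubated 2 h at 30°C; IC50 by non-linear regression, run at ≤0.001% or 2.0% final serum albumin.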

| IC50 | Compound |
| --- | --- |
| 0.4 nM | CC(C)C[C@H](NC(=O)[C@H](Cc1ccc(O)cc1)NC(=O)[C@H](CCCCN)NC(=O)[C@H](CO)NC(=O)[C@H](CC(C)C)NC(=O)[C@H](CC(=O)O)NC(=O)[C@H](CO)NC(=O)[C@@H](NC(=O)[C@H](Cc1ccccc1)NC(=O)[C@@H](NC(=O)CNC(=O)[C@H](CCC(N)=O)NC(=O)C(C)(C)NC(=O)[C@@H](N)Cc1c[nH]cn1)[C@@H](C)O)[C@@H](C)O)C(=O)N[C@@H](CCC(=O)O)C(=O)N[C@@H](CO)C(=O)N[C@@H](CCCNC(=N)N)C(=O)N[C@@H](CCCNC(=N)N)C(=O)N[C@@H](C)C(=O)N[C@@H](CCCNC(=N)N)C(=O)N[C@@H](CCC(=O)O)C(=O)N[C@@H](Cc1ccccc1)C(=O)N[C@H](C(=O)N[C@@H](CCC(N)=O)C(=O)N[C@@H](Cc1c[nH]c2ccccc12)C(=O)N[C@@H](CC(C)C)C(=O)N[C@@H](CC(C)C)C(=O)N[C@@H](CCCCNC(=O)CC[C@H](NC(=O)COCCOCCNC(=O)COCCOCCNC(=O)CC[C@H](NC(=O)CC[C@H](NC(=O)CCCCCCCCCCCCCCCCC(=O)O)C(=O)O)C(=O)O)C(=O)O)C(=O)N[C@H](C(N)=O)[C@@H](C)O)C(C)C [Example 20, N^ε29-[(4S)-4-carboxy-4-[[2-[2-[2-[[2-[2-[2-[[(4S)-4-carboxy-4-[[(4S)-4-carboxy-4-(17-carboxyheptadecanoylamino)butanoyl]amino]butanoyl]amino]ethoxy]ethoxy]acetyl]amino]ethoxy]ethoxy]acetyl]amino]butanoyl]-[Aib2,Leu10,Glu15,Arg20,Glu21,Leu27,Lys28]-Glucagon amide] (H-H[Aib]QGTFTSDLSKYLESRRAREFVQWLLK([γGlu-AEEA-AEEA-γGlu-γGlu-C18 diacid])T-NH2; N-terminus assumed) |
| 0.2 nM | CC(C)C[C@H](NC(=O)[C@H](Cc1ccc(O)cc1)NC(=O)[C@H](CCCCN)NC(=O)[C@H](CO)NC(=O)[C@H](CC(C)C)NC(=O)[C@H](CC(=O)O)NC(=O)[C@H](CO)NC(=O)[C@@H](NC(=O)[C@H](Cc1ccccc1)NC(=O)[C@@H](NC(=O)CNC(=O)[C@H](CCC(N)=O)NC(=O)C(C)(C)NC(=O)[C@@H](N)Cc1c[nH]cn1)[C@@H](C)O)[C@@H](C)O)C(=O)N[C@@H](CCC(=O)O)C(=O)N[C@@H](CO)C(=O)N[C@@H](CCCCN)C(=O)N[C@@H](CCCNC(=N)N)C(=O)N[C@@H](C)C(=O)N[C@@H](CCCNC(=N)N)C(=O)N[C@@H](CCC(=O)O)C(=O)N[C@@H](Cc1ccccc1)C(=O)N[C@H](C(=O)N[C@@H](CCC(N)=O)C(=O)N[C@@H](Cc1c[nH]c2ccccc12)C(=O)N[C@@H](CC(C)C)C(=O)N[C@@H](CC(C)C)C(=O)N[C@@H](CCCCNC(=O)CC[C@H](NC(=O)CC[C@H](NC(=O)[C@H](CO)NC(=O)[C@H](CCC(=O)O)NC(=O)[C@H](CO)NC(=O)CC[C@H](NC(=O)CC[C@H](NC(=O)CCCCCCCCCCCCCCCCC(=O)O)C(=O)O)C(=O)O)C(=O)O)C(=O)O)C(=O)N[C@H](C(N)=O)[C@@H](C)O)C(C)C [Example 54, N^ε28-[(4S)-4-carboxy-4-[[(4S)-4-carboxy-4-[[(2S)-2-[[(2S)-4-carboxy-2-[[(2S)-2-[[(4S)-4-carboxy-4-[[(4S)-4-carboxy-4-(17-carboxyheptadecanoylamino)butanoyl]amino]butanoyl]amino]-3-hydroxypropanoyl]amino]butanoyl]amino]-3-hydroxypropanoyl]amino]butanoyl]amino]butanoyl]-[Aib2,Leu10,Glu15,Lys17,Arg20,Glu21,Leu27,Lys28]-Glucagon amide] (H-H[Aib]QGTFTSDLSKYLESKRAREFVQWLLK([γGlu-γGlu-Ser-Glu-Ser-γGlu-γGlu-C18 diacid])T-NH2; N-terminus assumed) |
| 0.2 nM | CC(C)C[C@H](NC(=O)[C@H](Cc1ccc(O)cc1)NC(=O)[C@H](CCCNC(=N)N)NC(=O)[C@H](CO)NC(=O)[C@H](CC(C)C)NC(=O)[C@H](CC(=O)O)NC(=O)[C@H](CO)NC(=O)[C@@H](NC(=O)[C@H](Cc1ccccc1)NC(=O)[C@@H](NC(=O)CNC(=O)[C@H](CCC(N)=O)NC(=O)C1(NC(=O)[C@@H](N)Cc2c[nH]cn2)CCC1)[C@@H](C)O)[C@@H](C)O)C(=O)N[C@@H](CCC(=O)O)C(=O)N[C@@H](CO)C(=O)N[C@@H](CCCNC(=N)N)C(=O)N[C@@H](CCCNC(=N)N)C(=O)N[C@@H](C)C(=O)N[C@@H](CCCNC(=N)N)C(=O)N[C@@H](CCC(=O)O)C(=O)N[C@@H](Cc1ccccc1)C(=O)N[C@H](C(=O)N[C@@H](CCC(N)=O)C(=O)N[C@@H](Cc1c[nH]c2ccccc12)C(=O)N[C@@H](CC(C)C)C(=O)N[C@@H](CC(C)C)C(=O)N[C@@H](CCCCNC(=O)CC[C@H](NC(=O)CC[C@H](NC(=O)COCCOCCNC(=O)COCCOCCNC(=O)CC[C@H](NC(=O)CC[C@H](NC(=O)CCCCCCCCCCCCCCCCC(=O)O)C(=O)O)C(=O)O)C(=O)O)C(=O)O)C(=O)N[C@H](C(N)=O)[C@@H](C)O)C(C)C [Example 59, N^ε28-[(4S)-4-carboxy-4-[[(4S)-4-carboxy-4-[[2-[2-[2-[[2-[2-[2-[[(4S)-4-carboxy-4-[[(4S)-4-carboxy-4-(17-carboxyheptadecanoylamino)butanoyl]amino]butanoyl]amino]ethoxy]ethoxy]acetyl]amino]ethoxy]ethoxy]acetyl]amino]butanoyl]amino]butanoyl]-[Acb2,Leu10,Arg12,Glu15,Arg20,Glu21,Leu27,Lys28]-Glucagon amide] (H-H[Ac4c]QGTFTSDLSRYLESRRAREFVQWLLK([γGlu-γGlu-AEEA-AEEA-γGlu-γGlu-C18 diacid])T-NH2; N-terminus assumed) |
| 1.1 nM | CC(C)C[C@H](NC(=O)[C@H](CC(C)C)NC(=O)[C@H](Cc1c[nH]c2ccccc12)NC(=O)[C@H](CCC(N)=O)NC(=O)[C@@H](NC(=O)[C@H](Cc1ccccc1)NC(=O)[C@H](CCC(=O)O)NC(=O)[C@H](CCC(N)=O)NC(=O)[C@H](C)NC(=O)[C@H](C)NC(=O)[C@H](CCCCN)NC(=O)[C@H](CO)NC(=O)[C@H](CC(=O)O)NC(=O)[C@H](CC(C)C)NC(=O)[C@H](Cc1ccc(O)cc1)NC(=O)[C@H](CCCCN)NC(=O)[C@H](CO)NC(=O)[C@H](CC(C)C)NC(=O)[C@H](CC(=O)O)NC(=O)[C@H](CO)NC(=O)[C@@H](NC(=O)[C@H](Cc1ccccc1)NC(=O)[C@@H](NC(=O)CNC(=O)[C@H](CCC(N)=O)NC(=O)C(C)(C)NC(=O)[C@@H](N)Cc1c[nH]cn1)[C@@H](C)O)[C@@H](C)O)C(C)C)C(=O)N[C@@H](CC(N)=O)C(=O)N[C@@H](CCCCNC(=O)CC[C@H](NC(=O)CC[C@H](NC(=O)COCCOCCNC(=O)COCCOCCNC(=O)CC[C@H](NC(=O)CCCCCCCCCCCCCCCCC(=O)O)C(=O)O)C(=O)O)C(=O)O)C(N)=O [Example 8, N^ε29-[(4S)-4-carboxy-4-[[(4S)-4-carboxy-4-[[2-[2-[2-[[2-[2-[2-[[(4S)-4-carboxy-4-(17-carboxyheptadecanoylamino)butanoyl]amino]ethoxy]ethoxy]acetyl]amino]ethoxy]ethoxy]acetyl]amino]butanoyl]amino]butanoyl]-[Aib2,Leu10,Lys17,Ala18,Glu21,Leu27,Lys29]-Glucagon amide] (H-H[Aib]QGTFTSDLSKYLDSKAAQEFVQWLLNK([γGlu-γGlu-AEEA-AEEA-γGlu-C18 diacid])-NH2; N-terminus assumed) |
